In patent EP1309253B1, “METHODS AND DEVICES FOR REMOVING NU[…] FROM TOBACCO AND TOBACCO SMOKE” (Cerami Consulting Corporation, priority 2000, dated 2002):

Conditions: 250 mg portions of each compound as filter; smoke from one cigarette drawn through 3 mls of distilled water; read at 405 nm; compared with control cigarette
Description: The treated fibers were then dried overnight at 37 C. The smoke from one cigarette was drawn through the filter material and then through 3 mls of distilled water using a water-pipe smoking device which was constructed from a 25 ml glass Erlenmeyer flask attached to a vacuum source with an air flow rate of approximately 35 ml/min. Three 100 microliter aliquots were removed from each flask, placed into ELISA plate wells and read in an ELISA plate reader at 405 nm. The percentage or tar removed is based on a comparison between the cigarette comprising the filter containing the test agent and an appropriate control cigarette.
The treated fibers were dried at 37 C overnight and then made into a tobacco cigarette using a tube cigarette maker. The smoke from 1 of each type of filter cigarette was then drawn through 3 mls of distilled water using a water-pipe smoking device which was constructed from a small (25 ml) glass Erlenmeyer flask attached to a vacuum source with an air flow rate of approximately 35 ml/min. Three 100 microliter aliquots were removed from each flask, placed into ELISA plated wells and read in an ELISA plate reader at 405 nm.

| Structure (SMILES) | % TAR REMOVAL [%] |
| --- | --- |
| CC1(C)CC(=O)CC(=O)C1 [(5,5-dimethyl-1,3-cyclohexanedione, 5,5-dimethyl-1,3-cyclohexanedione] | 26 |
| O=C1NC(=O)C(=O)C(=O)N1 [Alloxan] | 96.9 |
| CC(C)(C)OC(=O)NCCCCCC(=O)ON1C(=O)CCC1=O [BOC-ε-aminocaproic acid-N-hydroxysuccinimide ester] | 74 |
| CC12CCC(C(=O)C1=O)C2(C)C (stereo not shown) [Camphorquinone] | 53.9 |
| O=C(C=CC=Cc1ccccc1)C=CC=Cc1ccccc1 [Dicinnamalacetone] | 98.1 |
| O=Cc1cccc(OCCOc2cccc(C=O)c2)c1 [Ethylenedioxybis(3-benzaldehyde)] | 19.3 |
| O=C(/C=C/C(=O)c1ccccc1)c1ccccc1 [Fumarophenone] | 87.5 |
| O=C1C=C2CC3(O)COc4c(ccc(O)c4O)C3=C2C=C1O (stereo not shown) [Hematein, 6a,7-dihydro-3,4,6a,10 tetrahydroxyben[b]indeno[1,2-d]pyran-9(6H)-one] | 48.7 |
| O=C1c2ccccc2C(=O)C1(O)C1(O)C(=O)c2ccccc2C1=O [Hydrindantin] | 95 |
| C[C@H](NC(=O)OC(C)(C)C)C(=O)ON1C(=O)CCC1=O [N-α-t-BOC-L-alanine-N-hydroxysuccinimide ester] | 25 |
| O=C1c2ccccc2C(=O)C1(O)O [Ninhydrin] | 83 |
| O=Cc1ccccc1C=O [O-phthaldialdehyde] | 84 |
| O=CC(=O)c1ccccc1 [Phenylglyoxal] | 53 |
